Laboratory results: patent US7579371B2, “Methods of using [3.2.0] heterocyclic compounds and analogs thereof” (Nereus Pharmaceuticals, Inc., priority 2004, dated 2009)
“And” between values parts separate entries of the source, which are not always exact repeats. Identical values can stand only once. Like-named read-outs stand apart in the source and are kept apart here.

Legend:
[1] = system: MM.1R and Doxorubicin-resistant Dox-40 cell lines
[2] = system: NF-κB/Luc 293 cells; assay: Viability of NF-κB/Luc 293 cells (resazurin, 24 hr); assay type: cell-based, human; settings: ~7 nM
[3] = system: IκBα; assay: Western blot of total and phosphorylated IκBα, HEK293 and NF-κB/Luc 293 cells; assay type: cell-based, human; settings: 50 and 500 nM, 1 hour pre-treatment
Experimental: Endogenous protein levels were assessed in both HEK293 cells and the NF-κB/Luc 293 reporter clone.
Antibodies against total and phosphorylated forms of IκBα were used to determine the endogenous level of each protein and anti-Tubulin antibody was used to confirm equal loading of protein.

[4] = molecular target: T1, human erythrocyte 20S proteasomes, chymotrypsin-like activity (Homo sapiens, UniProt P28074); assay: Chymotrypsin-like activity of human erythrocyte 20S proteasomes; assay type: biochemical
T1 construct: Human erythrocyte 20S proteasomes were obtained from BIOMOL (Cat. # SE-221); purchased BIOMOL SE-221; host or cells: human erythrocytes

[5] = system: NCI-H292; assay: Cell growth inhibition assay (resazurin, 48 h); assay type: cell-based, human; settings: NCI-H292, 48 h
[6] = system: PANC-1; assay: Cell growth inhibition assay (resazurin, 48 h); assay type: cell-based; settings: Homo sapiens, PANC-1, 48 h
[7] = system: MES-SA; assay: Cell growth inhibition assay (resazurin, 48 h); assay type: cell-based, human
[8] = system: PARP; assay: PARP cleavage in Jurkat cells (western blot); assay type: cell-based, human; settings: 100 nM Salinosporamide A or 350 nM Staurosporine
[9] = system: Jurkat cells; assay: Cytotoxicity against Jurkat cells; assay type: cell-based, human
[10] = molecular target: T2, 20S proteasome chymotrypsin-like activity in PC-3 cells (Homo sapiens, UniProt P28074); assay: Chymotrypsin-like activity of 20S proteasomes in treated PC-3 cells; assay type: cell-based; settings: 5 nM, 1 hr
T2 construct: PC-3 (ATCC, CRL-1435), the human prostate cancer cell line; host or cells: PC-3
T2 sequence (P28074 60-263): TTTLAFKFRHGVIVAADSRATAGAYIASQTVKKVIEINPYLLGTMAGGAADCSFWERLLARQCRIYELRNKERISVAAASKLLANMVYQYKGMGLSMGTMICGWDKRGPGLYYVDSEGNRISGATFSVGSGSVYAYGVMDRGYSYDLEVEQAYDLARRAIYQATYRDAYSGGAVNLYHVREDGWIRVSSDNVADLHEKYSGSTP
Experimental: PC-3 (ATCC, CRL-1435), the human prostate cancer cell line, was cultured in F12K medium supplemented with 2 mM L-glutamine, 100 units/ml penicillin, 100 μg/ml streptomycin and 10% heat inactivated fetal bovine serum at 37° C., 5% CO2 and 95% humidified air. […] DMSO was used as the vehicle control at a final concentration of 0.1%. Following 1 hr incubation of PC-3 cells with the compounds, the cells were washed 3× with ice-cold 1× Dulbecco's Phosphate-Buffered Saline (DPBS, Mediatech, Herndon, Va.). […] Cell debris was pelleted by centrifugation at 14,000 rpm for 10 min, 4° C. and supernatants (=cell lysates) were transferred to a new tube. Protein concentration was determined by the BCA protein assay kit (Pierce Biotechnology, Rockford, Ill.). […] The released coumarin (AMC) was measured fluorometrically by using λex=390 nm and λem=460 nm. The assay was performed in a microtiter plate (Corning 3904) and followed kinetically with measurements every five minutes for 2 hr. The total amount of protein used for each assay was 20 μg. The final concentration of Suc-LLVY-AMC and DMSO was 20 μM and 0.2%, respectively. Results are presented as the percent inhibition of the 20S proteasome chymotrypsin-like activity relative to the DMSO control.

[11] = system: 20S proteasome chymotrypsin-like activity in RPMI 8226 cells; assay: Chymotrypsin-like activity of 20S proteasomes in treated RPMI 8226 cells; assay type: cell-based, human; settings: 1 nM, 1 hr
Experimental: RPMI 8226 (ATCC, CCL-155), the human multiple myeloma cell line, was cultured in RPMI 1640 medium supplemented with 2 mM L-glutamine, 100 units/ml penicillin, 100 μg/ml streptomycin, 1 mM sodium pyruvate and 10% heat inactivated fetal bovine serum at 37° C., 5% CO2 and 95% humidified air. […] DMSO was used as the vehicle control at a final concentration of 0.1%. Following 1 hr incubation of RMPI 8226 cells with the compounds, the cells were pelleted by centrifugation at 2,000 rpm for 10 sec at room temperature and washed 3× with ice-cold 1× Dulbecco's Phosphate-Buffered Saline (DPBS, Mediatech, Herndon, Va.). DPBS washed cells were lysed on ice for 15 min in lysis buffer (20 mM HEPES, 0.5 mM EDTA, 0.05% Triton X-100, pH 7.3) supplemented with protease inhibitor cocktail (Roche Diagnostics, Indianapolis, Ind.). Cell debris was pelleted by centrifugation at 14,000 rpm for 10 min, 4° C. and supernatants (=cell lysates) were transferred to a new tube. Protein concentration was determined by the BCA protein assay kit (Pierce Biotechnology, Rockford, Ill.). […] The released coumarin (AMC) was measured fluorometrically by using λex=390 nm and λem=460 nm. The assay was performed in a microtiter plate (Corning 3904) and followed kinetically with measurements every five minutes for 2 hr. The total amount of protein used for each assay was 20 μg. […]

[12] = system: p21 and p27; assay: Western blot of cell cycle regulatory proteins p21 and p27; assay type: cell-based, human; settings: various concentrations, preliminary
Excerpt: The ubiquitin-proteasome pathway is an essential proteolytic system involved in cell cycle control by regulating the degradation of cyclins and cyclin-dependent kinase (Cdk) inhibitors such as p21 and p27. Pagano, et al., Science 269:682 (1995), Kisselev, et al., Chem Biol 8:739 (2001), King, et al., Science 274:1652 (1996). Furthermore, p21 and p27 protein levels are increased in the presence of proteasome inhibitors. Fukuchi, et al., Biochim Biophys Acta 1451:206 (1999), Takeuchi, et al, Jpn J Cancer Res 93:774 (2002).
The Western blots presented in FIG. 33 were reprobed using antibodies against p21 and p27 to determine the endogenous level of each protein and anti-Tubulin antibody was used to confirm equal loading of protein.

[13] = system: tumor cell lines; assay: Growth inhibition / cytotoxicity, summary over tumor cell lines; assay type: cell-based
[14] = system: multiple myeloma cells; assay: Transwell migration assay, VEGF-induced migration; assay type: cell-based
Experimental: The compounds disclosed herein inhibit angiogenesis. […] The other compounds disclosed herein are tested in a transwell mighration assay and inhibit migration.

C[C@@]12OC(=O)[C@]1([C@@H](O)[C@@H]1C=CCCC1)NC(=O)[C@@H]2CCCl [Formula II-16, Salinosporamide A]
activity against drug resistant multiple myeloma [1]: active against MM.1R and Doxorubicin-resistant Dox-40 cell lines
cell viability at the NF-κB EC50 concentration [2]: did not affect cell viability
effect on total IκBα and phospho-IκBα upon TNF-α stimulation [3]: reduced the degradation of total IκBα but also retained the phospho-IκBα level
EC50 [4]: ~3 nM and ~4 nM
EC50 ([5]; Homo sapiens): 97 nM
EC50 [5]: 66 ± 29 nM
EC50 [6]: 60 nM
% cytotoxicity [7]: 94 ± 1%
EC50 ([7]; Homo sapiens, 48 h): 20 ± 5 nM
cleavage of PARP [8]: cleavage of PARP within the Jurkat cells in a time-dependent fashion
% max cell kill [9]: 97%
EC50 ([9]; Homo sapiens): 10 nM
% inhibition of the chymotrypsin-like activity of 20S proteasomes in PC-3 cell lysates [10]: 69%
% inhibition of the chymotrypsin-like activity of 20S proteasomes in RPMI 8226 cell lysates [11]: 30 ± 7%
p21 and p27 protein levels [12]: elevated
EC50 ([13]; RPMI 8226, PC-3, DU 145, 48 hour, read-out: EC50 values against RPMI 8226 and the prostate cell lines, range): 10 to 37 nM
EC50 ([13]; read-out: EC50 values for cytotoxicity, range): 10 to 200 nM
VEGF-induced migration of multiple myeloma cells [14]: blocked
